Experimental findings from article PMC8391922, “The Combined Effect of Branching and Elongation on the Bioactivity Profile of Phytocannabinoids. Part I: Thermo-TRPs” (Biomedicines, 2021) are described below.

What all share (format): cell-based
The target in assay [1] is T1, rat TRPA1 (Rattus norvegicus, UniProt Q6RI86).
T1 construct: expressed in transfected cells; host or cells: HEK-293
Nature of the assay: TRPA1-mediated elevation of intracellular Ca2+ (Fluo-4) in transfected HEK-293 cells. The settings on record: for TRPA1 Efficacy (%ITC 100 μM): percentage of the effect of 100 μM allylisothiocyanate on [Ca2+]i. As for the experimental part: (§1) Assays of rat TRPA1, TRPV2, TRPV3, TRPV4, and TRPM8 or human TRPV1 mediated elevation of intracellular Ca ^2+ in transfected HEK-293 cells were performed with a continuous monitoring of [Ca ^2+]i during the experiments. […] Cell fluorescence before and after the addition of various concentrations of test compounds was measured, normalizing the effects against the response to ionomycin (IM, 4 μM). The values of the effect on [Ca^2+]i in HEK-293 cells not transfected were used as baseline and subtracted from the values obtained from transfected cells. For TRPA1, agonist efficacy was expressed as a percentage of the effect on [Ca ^2+]i observed with 100 μM allylisothiocyanate. […] In the TRPV3 assay, TRPV3-expressing HEK293 cells were first sensitized with the structurally unrelated agonist 2-aminoethoxydiphenyl borate (100 μM). Antagonist/desensitizing behavior is evaluated against the agonist of the TRP analyzed by adding the compounds directly in the quartz cuvette 5 min before stimulation of cells with the agonist. […] Dose-response curve fitting (sigmoidal dose-response variable slope) and parameter estimation were performed with Graph-Pad Prism8 (GraphPad Software Inc., San Diego, CA, USA). All determinations were performed at least in triplicate.

Assay [2] concerns the target T2, human TRPV1 (Homo sapiens, UniProt Q8NER1).
T2 construct: expressed in transfected cells; host or cells: HEK-293
Nature of the assay: TRPV1-mediated elevation of intracellular Ca2+ (Fluo-4) in transfected HEK-293 cells. As to conditions: for TRPV1 Efficacy (% IM 4 μM): percentage of the response to ionomycin 4 μM, HEK-293. As for the experimental part:
as §1

The target of assay [3] is T3, rat TRPM8 (Rattus norvegicus, UniProt Q8R455).
T3 construct: expressed in transfected cells; host or cells: HEK-293
T3 sequence (Q8R455 whole entry): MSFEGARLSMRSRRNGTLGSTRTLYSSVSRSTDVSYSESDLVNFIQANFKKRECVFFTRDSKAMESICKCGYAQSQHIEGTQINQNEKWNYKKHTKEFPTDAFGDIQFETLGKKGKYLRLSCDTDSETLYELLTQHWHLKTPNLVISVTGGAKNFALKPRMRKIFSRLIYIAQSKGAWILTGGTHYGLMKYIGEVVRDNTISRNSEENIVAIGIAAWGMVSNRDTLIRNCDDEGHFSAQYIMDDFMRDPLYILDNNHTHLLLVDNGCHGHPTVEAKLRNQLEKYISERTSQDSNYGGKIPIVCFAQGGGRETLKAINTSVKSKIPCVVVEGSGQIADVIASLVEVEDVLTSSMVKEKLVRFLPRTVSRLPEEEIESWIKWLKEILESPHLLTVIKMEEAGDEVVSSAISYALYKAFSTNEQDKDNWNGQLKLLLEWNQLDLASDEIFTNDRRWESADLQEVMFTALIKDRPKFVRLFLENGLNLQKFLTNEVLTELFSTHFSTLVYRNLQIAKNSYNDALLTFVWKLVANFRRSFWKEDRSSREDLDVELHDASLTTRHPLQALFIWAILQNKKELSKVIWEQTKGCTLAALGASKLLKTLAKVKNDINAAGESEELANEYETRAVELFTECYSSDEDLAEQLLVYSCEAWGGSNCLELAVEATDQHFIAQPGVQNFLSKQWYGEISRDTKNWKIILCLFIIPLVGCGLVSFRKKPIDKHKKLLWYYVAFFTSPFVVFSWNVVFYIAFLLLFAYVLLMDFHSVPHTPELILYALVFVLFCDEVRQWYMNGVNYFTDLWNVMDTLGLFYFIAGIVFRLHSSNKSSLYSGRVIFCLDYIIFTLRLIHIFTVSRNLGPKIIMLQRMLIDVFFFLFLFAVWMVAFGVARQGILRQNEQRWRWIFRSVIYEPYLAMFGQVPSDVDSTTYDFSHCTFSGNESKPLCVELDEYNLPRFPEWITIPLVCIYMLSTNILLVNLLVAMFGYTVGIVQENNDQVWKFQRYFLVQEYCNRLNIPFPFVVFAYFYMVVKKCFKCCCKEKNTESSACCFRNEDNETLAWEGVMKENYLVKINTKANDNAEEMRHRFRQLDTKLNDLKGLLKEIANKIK
Description: TRPM8 antagonism of icilin-induced intracellular Ca2+ elevation (Fluo-4) in transfected HEK-293 cells. The settings on record: compound added 5 min before agonist icilin 0.25 μM. As for the experimental part:
as §1

Assay [4] addresses T4, rat TRPV3 (Rattus norvegicus, UniProt Q4QYD9).
T4 construct: expressed in transfected cells; host or cells: HEK-293
T4 sequence (Q4QYD9 1-791): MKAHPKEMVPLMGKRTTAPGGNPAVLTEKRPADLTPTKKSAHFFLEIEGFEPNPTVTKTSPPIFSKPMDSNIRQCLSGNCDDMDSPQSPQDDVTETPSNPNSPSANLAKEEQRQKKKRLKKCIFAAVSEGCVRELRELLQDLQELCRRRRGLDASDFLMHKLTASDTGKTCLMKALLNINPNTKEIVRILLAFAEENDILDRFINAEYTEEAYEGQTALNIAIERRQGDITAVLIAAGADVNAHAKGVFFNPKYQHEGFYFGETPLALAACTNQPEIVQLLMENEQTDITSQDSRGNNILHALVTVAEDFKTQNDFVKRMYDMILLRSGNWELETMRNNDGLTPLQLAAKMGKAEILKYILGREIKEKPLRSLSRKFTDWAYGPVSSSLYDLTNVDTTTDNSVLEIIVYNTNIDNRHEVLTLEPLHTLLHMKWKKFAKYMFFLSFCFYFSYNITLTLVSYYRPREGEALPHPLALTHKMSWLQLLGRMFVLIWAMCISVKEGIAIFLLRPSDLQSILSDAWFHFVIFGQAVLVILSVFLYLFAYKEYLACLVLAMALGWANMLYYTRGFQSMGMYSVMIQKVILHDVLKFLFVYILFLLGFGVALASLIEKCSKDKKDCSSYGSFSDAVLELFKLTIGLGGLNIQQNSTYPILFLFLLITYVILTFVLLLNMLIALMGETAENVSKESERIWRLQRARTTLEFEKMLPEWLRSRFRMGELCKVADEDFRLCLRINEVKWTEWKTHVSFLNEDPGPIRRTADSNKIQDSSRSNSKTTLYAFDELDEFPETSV
Description: TRPV3-mediated elevation of intracellular Ca2+ (Fluo-4) in transfected HEK-293 cells. As to conditions: for IC50: antagonist/desensitizing, compound added 5 min before agonist thymol 100 μM; for EC50: half-maximal increase in [Ca2+]i, HEK-293, read-out: TRPV3 Potency EC50; for TRPV3 Efficacy (% IM 4 μM): percentage of the response to ionomycin 4 μM, cells sensitized with 2-aminoethoxydiphenyl borate 100 μM. As for the experimental part:
Effects of compounds on intracellular Ca^2+ concentration ([Ca^2+]i) were determined using Fluo-4, a selective intracellular fluorescent probe for Ca ^2+. Assays of rat TRPA1, TRPV2, TRPV3, TRPV4, and TRPM8 or human TRPV1 mediated elevation of intracellular Ca ^2+ in transfected HEK-293 cells were performed with a continuous monitoring of [Ca ^2+]i during the experiments. Briefly, human embryonic kidney (HEK-293) cells, stably transfected with rat TRPA1, TRPV2, TRPV3, TRPV4, and TRPM8 or human TRPV1 (selected by geneticin 600 μg mL ^−1) or not transfected, were cultured in EMEM+ 2 mM glutamine + 1% nonessential amino acids +10% FBS and maintained at 37 °C with 5% CO2. TRP-HEK-293 cells express stably high levels of TRP transcripts, while these transcripts were virtually absent in wild-type HEK-293 cells as checked by real-time PCR. On the day of the experiment, the cells were loaded for 1 h in the dark at room temperature with Fluo-4 AM (4 μM in DMSO containin 0.02% Pluronic F-127). The cells were rinsed, resuspended in Tyrode’s solution (145 mM NaCl, 2.5 mM KCl, 1.5 mM CaCl2, 1.2 mM MgCl2, 10 mM D-glucose, and 10 mM HEPES, pH 7.4), and transferred to a quartz cuvette of a spectrofluorimeter (PerkinElmer LS50B; λEX = 488 nm, λEM = 516 nm) equipped with a PTP-1 fluorescence Peltier system (PerkinElmer Life and Analytical Sciences, Waltham, MA, USA) under continuous stirring. Cell fluorescence before and after the addition of various concentrations of test compounds was measured, normalizing the effects against the response to ionomycin (IM, 4 μM). The values of the effect on [Ca^2+]i in HEK-293 cells not transfected were used as baseline and subtracted from the values obtained from transfected cells. For TRPA1, agonist efficacy was expressed as a percentage of the effect on [Ca ^2+]i observed with 100 μM allylisothiocyanate. The potency of the compounds (EC50 values) is determined as the concentration required to produce half-maximal increases in [Ca ^2+]i. In the TRPV3 assay, TRPV3-expressing HEK293 cells were first sensitized with the structurally unrelated agonist 2-aminoethoxydiphenyl borate (100 μM). Antagonist/desensitizing behavior is evaluated against the agonist of the TRP analyzed by adding the compounds directly in the quartz cuvette 5 min before stimulation of cells with the agonist. Allylisothiocyanate (100 μM) was used for TRPA1, capsaicin (0.1 μM) for TRPV1, cannabidiol (2 μM) for TRPV2, thymol (100 μM) for TRPV3, GSK1016790A (10 nM) for TRPV4, and icilin (0.25 μM) for TRPM8. The IC50 value was expressed as the concentration exerting a half-maximal inhibition of agonist effect, taking as 100% the effect on [Ca^2+]i exerted by the agonist alone. Dose-response curve fitting (sigmoidal dose-response variable slope) and parameter estimation were performed with Graph-Pad Prism8 (GraphPad Software Inc., San Diego, CA, USA). All determinations were performed at least in triplicate.

Assay [5] addresses T5, rat TRPV4 (Rattus norvegicus, UniProt Q9ERZ8).
T5 construct: expressed in transfected cells; host or cells: HEK-293
Description: TRPV4-mediated elevation of intracellular Ca2+ (Fluo-4) in transfected HEK-293 cells. As to conditions: for TRPV4 Efficacy (% IM 4 μM): percentage of the response to ionomycin 4 μM. As for the experimental part: as §1

The mark [6] stands for this setting: antagonist/desensitizing, compound added 5 min before agonist AITC 100 μM, read-out: IC50 TRPA1.
The mark [7] stands for this setting: half-maximal increase in [Ca2+]i, HEK-293, read-out: TRPA1 Potency EC50.
Setting [8] is: antagonist/desensitizing, compound added 5 min before agonist capsaicin 0.1 μM.
Setting [9] is: antagonist/desensitizing, compound added 5 min before agonist GSK1016790A 10 nM, read-out: IC50 TRPV4.
[10] abbreviates: antagonist/desensitizing, compound added 5 min before agonist capsaicin 0.1 μM, read-out: IC50 TRPV1.
The mark [11] stands for this setting: antagonist, read-out: IC50 TRPM8.

Like-named read-outs stand apart in the source and are kept apart here.

T1 sequence (Q6RI86 whole entry): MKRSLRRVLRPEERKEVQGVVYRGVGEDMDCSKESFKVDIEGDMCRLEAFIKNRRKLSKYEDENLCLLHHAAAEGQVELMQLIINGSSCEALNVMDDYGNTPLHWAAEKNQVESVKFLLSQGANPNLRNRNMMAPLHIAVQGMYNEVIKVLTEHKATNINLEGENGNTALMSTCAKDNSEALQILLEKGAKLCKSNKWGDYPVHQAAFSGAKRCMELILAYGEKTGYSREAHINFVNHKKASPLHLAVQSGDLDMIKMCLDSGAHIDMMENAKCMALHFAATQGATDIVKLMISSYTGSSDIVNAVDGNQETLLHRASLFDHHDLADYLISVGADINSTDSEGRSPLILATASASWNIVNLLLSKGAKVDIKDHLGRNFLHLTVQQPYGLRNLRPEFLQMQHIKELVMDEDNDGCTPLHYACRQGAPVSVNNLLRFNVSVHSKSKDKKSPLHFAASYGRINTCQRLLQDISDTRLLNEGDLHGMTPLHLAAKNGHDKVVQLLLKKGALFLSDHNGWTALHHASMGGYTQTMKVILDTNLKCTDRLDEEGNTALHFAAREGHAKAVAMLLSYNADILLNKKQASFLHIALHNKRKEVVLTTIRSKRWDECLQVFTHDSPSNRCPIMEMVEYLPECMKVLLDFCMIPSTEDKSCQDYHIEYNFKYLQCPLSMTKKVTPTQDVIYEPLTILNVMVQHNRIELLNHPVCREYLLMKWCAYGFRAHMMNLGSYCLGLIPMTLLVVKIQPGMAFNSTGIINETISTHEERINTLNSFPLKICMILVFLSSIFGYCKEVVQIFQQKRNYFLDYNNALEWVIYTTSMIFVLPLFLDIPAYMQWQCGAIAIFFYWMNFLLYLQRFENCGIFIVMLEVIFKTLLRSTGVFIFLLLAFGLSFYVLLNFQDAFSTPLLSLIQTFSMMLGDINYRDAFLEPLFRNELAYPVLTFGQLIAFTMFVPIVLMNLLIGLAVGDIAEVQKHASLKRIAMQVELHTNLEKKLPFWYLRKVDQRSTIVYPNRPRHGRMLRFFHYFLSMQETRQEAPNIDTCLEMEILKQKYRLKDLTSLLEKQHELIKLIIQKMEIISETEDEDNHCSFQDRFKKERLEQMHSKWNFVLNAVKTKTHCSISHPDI
T2 sequence (Q8NER1 whole entry): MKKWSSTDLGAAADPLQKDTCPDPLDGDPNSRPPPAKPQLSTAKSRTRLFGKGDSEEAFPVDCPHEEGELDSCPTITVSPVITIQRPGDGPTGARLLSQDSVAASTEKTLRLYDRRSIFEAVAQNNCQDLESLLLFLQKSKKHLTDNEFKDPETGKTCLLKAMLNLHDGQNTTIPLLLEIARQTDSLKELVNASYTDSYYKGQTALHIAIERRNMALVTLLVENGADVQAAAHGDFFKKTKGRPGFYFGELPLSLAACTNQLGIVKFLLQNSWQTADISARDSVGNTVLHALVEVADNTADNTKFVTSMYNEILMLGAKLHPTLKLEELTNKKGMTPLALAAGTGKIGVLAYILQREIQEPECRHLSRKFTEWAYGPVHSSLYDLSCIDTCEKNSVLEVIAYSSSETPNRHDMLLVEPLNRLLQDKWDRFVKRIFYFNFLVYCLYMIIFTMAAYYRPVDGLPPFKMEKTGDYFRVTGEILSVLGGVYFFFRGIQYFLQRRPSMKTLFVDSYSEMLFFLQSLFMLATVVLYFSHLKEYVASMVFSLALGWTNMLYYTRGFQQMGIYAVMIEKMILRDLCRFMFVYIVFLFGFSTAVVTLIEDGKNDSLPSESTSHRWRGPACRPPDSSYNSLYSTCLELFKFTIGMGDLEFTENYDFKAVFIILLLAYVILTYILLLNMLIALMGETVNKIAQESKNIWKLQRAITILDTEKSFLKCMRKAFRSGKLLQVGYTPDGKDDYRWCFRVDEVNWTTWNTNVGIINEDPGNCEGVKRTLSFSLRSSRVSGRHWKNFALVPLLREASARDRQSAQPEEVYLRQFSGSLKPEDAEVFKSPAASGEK
T5 sequence (Q9ERZ8 whole entry): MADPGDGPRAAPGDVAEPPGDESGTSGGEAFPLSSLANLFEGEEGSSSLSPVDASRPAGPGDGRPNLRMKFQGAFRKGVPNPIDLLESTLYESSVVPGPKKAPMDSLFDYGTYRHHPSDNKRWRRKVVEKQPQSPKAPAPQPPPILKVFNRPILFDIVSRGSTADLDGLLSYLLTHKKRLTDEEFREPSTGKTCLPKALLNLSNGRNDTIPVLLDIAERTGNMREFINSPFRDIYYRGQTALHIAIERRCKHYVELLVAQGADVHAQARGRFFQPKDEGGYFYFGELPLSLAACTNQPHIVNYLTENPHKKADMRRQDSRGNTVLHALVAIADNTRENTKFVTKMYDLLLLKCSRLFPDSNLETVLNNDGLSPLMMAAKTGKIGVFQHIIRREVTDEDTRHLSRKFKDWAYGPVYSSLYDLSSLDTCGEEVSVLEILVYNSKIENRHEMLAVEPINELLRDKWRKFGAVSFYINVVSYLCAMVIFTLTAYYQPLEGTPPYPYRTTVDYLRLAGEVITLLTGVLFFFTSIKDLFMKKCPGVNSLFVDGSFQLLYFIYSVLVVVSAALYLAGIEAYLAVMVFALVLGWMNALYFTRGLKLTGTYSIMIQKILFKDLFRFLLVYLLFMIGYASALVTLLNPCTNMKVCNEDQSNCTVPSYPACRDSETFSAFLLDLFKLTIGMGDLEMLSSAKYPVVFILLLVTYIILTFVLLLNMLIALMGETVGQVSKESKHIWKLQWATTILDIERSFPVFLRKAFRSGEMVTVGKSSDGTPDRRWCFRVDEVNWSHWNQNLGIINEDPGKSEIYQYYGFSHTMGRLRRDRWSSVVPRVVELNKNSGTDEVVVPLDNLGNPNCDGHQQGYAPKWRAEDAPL

Broadly, the IC50 is the concentration that inhibits the measured activity by half. By EC50 is commonly meant the midpoint of the concentration-response curve. On to `CCCCCCC(C)(C)c1cc(O)c(C/C=C(\C)CCC=C(C)C)c(O)c1` [7b, Depentyl-α,α-dimethylheptyl-cannabigerol], for which the IC50 in assay [1] (setting [6]) was 1.7 ± 0.15 µM; in assay [2], over 100 µM; in assay [3] (IC50 TRPM8, antagonist) it was 9.2 ± 0.8 µM; in assay [4], 35.4 ± 3.6 µM; in assay [5] (setting [9]) it was 35.4 ± 3.2 µM. Also, the EC50 was determined as 9.1 ± 2 µM in assay [1] (setting [7]); 39.7 ± 0.03 µM in assay [4]; 39 ± 21.6 µM in assay [5] (half-maximal increase in [Ca2+]i, HEK-293, read-out: TRPV4 Potency EC50). For the same compound, in assay [1] (HEK-293), the “TRPA1 Efficacy (%ITC 100 μM)” value was determined as 99.2 ± 4.5%. In assay [2] (setting [8]), the “IC50 TRPV1” value was “inactive”. Further, in assay [2], the “TRPV1 Efficacy (% IM 4 μM)” value was under 10%. In assay [4], the “TRPV3 Efficacy (% IM 4 μM)” value is 64.6 ± 4.8%. Moreover, the “TRPV4 Efficacy (% IM 4 μM)” value in assay [5] (HEK-293) is on record as 34.4 ± 5.2%.
As for `C=C(C)[C@@H]1CCC(C)=C[C@H]1c1c(O)cc(C(C)(C)CCCCCC)cc1O` [1b, Depentyl-α,α-dimethylheptyl-cannabidiol], the concentration for half-maximal inhibition (IC50) in assay [1] (setting [6]) is 0.51 ± 0.03 µM; in assay [2] (setting [10]), over 100 µM; in assay [3] (setting [11]) it was 13.4 ± 2.1 µM; in assay [4], 32.6 ± 5.1 µM; in assay [5] (setting [9]) it was over 100 µM. The EC50 turned out to be 0.4 ± 0.15 µM in assay [1] (setting [7]) and 11 ± 1.1 µM in assay [4]. Further, the “TRPA1 Efficacy (%ITC 100 μM)” value in assay [1] (HEK-293) amounted to 133.4 ± 5.3%. Also, the “IC50 TRPV1” value in assay [2] (setting [8]) is “inactive”. Also, in assay [2], the “TRPV1 Efficacy (% IM 4 μM)” value is on record as under 10%. Also, in assay [4], the “TRPV3 Efficacy (% IM 4 μM)” value came out at 15.8 ± 0.4%. In addition, in assay [5] (HEK-293), the “TRPV4 Efficacy (% IM 4 μM)” value amounted to 34.0 ± 1.3%.
For `CCCCC(C)(C)c1cc(O)c2c(c1)OC(C)(CCC=C(C)C)C=C2` (stereo not drawn) [8d, Depentyl-5-α,α-dimethylpentylcannabichromene], the IC50 in assay [1] (setting [6]) was 0.4 ± 0.01 µM; in assay [2] (setting [10]), over 100 µM; in assay [3] (setting [11]) it was 23.6 ± 7.4 µM; in assay [4], over 100 µM; in assay [5] (setting [9]), over 100 µM. For the same compound, in assay [1] (setting [7]), the EC50 came to 0.15 ± 0.03 µM. Also, in assay [1] (HEK-293), the “TRPA1 Efficacy (%ITC 100 μM)” value amounted to 98.7 ± 1.9%. The “TRPV1 Efficacy (% IM 4 μM)” value in assay [2] is reported as under 10%. For the same compound, the “TRPV3 Efficacy (% IM 4 μM)” value in assay [4] is listed as under 10%. Moreover, the “TRPV4 Efficacy (% IM 4 μM)” value in assay [5] (HEK-293) is under 10%.
Take `CCCCCCC(C)(C)c1cc(O)c2c(c1)OC(C)(CCC=C(C)C)C=C2` (stereo not drawn) [8b, Depentyl-α,α-dimethylheptyl-cannabichromene]: the EC50 was 0.76 ± 0.12 µM in assay [1], 12.8 ± 0.9 µM in assay [2] and over 50 µM in assay [4]. Moreover, the IC50 in assay [1] is 0.32 ± 0.01 µM; in assay [2], over 100 µM; in assay [3] (IC50 TRPM8, antagonist) it was over 100 µM; in assay [4], over 50 µM; in assay [5], over 100 µM. Moreover, the “TRPA1 Efficacy (%ITC 100 μM)” value in assay [1] (HEK-293) is 120.4 ± 2.8%. In addition, the “TRPV1 Efficacy (% IM 4 μM)” value in assay [2] amounted to 18.9 ± 0.2%. Besides, the “IC50 TRPM8” value in assay [3] (antagonist) is “totally inactive”. Further, in assay [4], the “TRPV3 Efficacy (% IM 4 μM)” value was found to be 41.6 ± 1.8%. Also, the “TRPV4 Efficacy (% IM 4 μM)” value in assay [5] (HEK-293) is under 10%.
On to `CCCCCCCc1cc(O)c2c(c1)OC(C)(CCC=C(C)C)C=C2` (stereo not shown) [8c, Depentyl-5-n-heptylcannabichromene], for which the IC50 was 3.8 ± 0.35 µM in assay [1] (setting [6]); over 100 µM in assay [2] (setting [10]); over 100 µM in assay [3] (setting [11]); over 100 µM in assay [4]; over 100 µM in assay [5] (setting [9]). Further, in assay [1] (setting [7]), the EC50 came to 1.2 ± 0.2 µM. The “TRPA1 Efficacy (%ITC 100 μM)” value in assay [1] (HEK-293) is given as 97.8 ± 3.3%. Further, the “TRPV1 Efficacy (% IM 4 μM)” value in assay [2] is under 10%. The “TRPV3 Efficacy (% IM 4 μM)” value in assay [4] is on record as under 10%. Besides, the “TRPV4 Efficacy (% IM 4 μM)” value in assay [5] (HEK-293) is listed as under 10%.
